In patent US10766914B2, “DNA alkylating agents” (OBI PHARMA, INC., priority 2015, dated 2020) one finds IC50 data, which are given here for 60 compounds.

The test system of the test is H460 cells. The test can be described thus: Proliferation assay in H460 cells (2 hr exposure, AlamarBlue). It is filed as cell-based, human. The note with it: Homo sapiens, NCI-H460, 2 hrs exposure, wash, 70 hrs growth, read-out: IC 50 in proliferation assay in H460 cells. How it is done:
In vitro proliferation data on the H460 […] human tumor cell line is reported above in the compound table.
Specifically, exponentially growing cells were seeded at a density of 4×10^3 cells per well in a 96 well plate and incubated at 37° C. in 5% CO2, 95% air and 100% relative humidity for 24 hours prior to addition of test compounds. Compounds were solubilized in 100% DMSO at 200 times the desired final test concentration. At the time of drug addition, compounds were further diluted to 4 times the desired final concentration with complete medium. Aliquots of 50 μl of compound at specified concentrations were added to microtiter wells already containing 150 μl of medium, resulting in the final drug concentration reported. After drug addition, the plates were incubated for an additional 2 hours at 37° C., 5% CO2, 95% air, and 100% relative humidity, then the drug was washed off and fresh medium was added and the plates were incubated for addition 70 hrs at 37° C., 5% CO2, 95% air and 100% relative humidity. At the end of this incubation, the viable cells were quantified using the AlamarBlue assay. The drug concentration resulting in growth inhibition of 50% (IC50) was calculated using Prism software (Irvine, Calif.), and the results were listed in the table.
On the technique in general: Resazurin is reduced to fluorescent resorufin, in cell work by metabolically active cells.

On to `CC(OP(=O)(N1CC1)N1CC1)c1ccc([N+](=O)[O-])c(Oc2ccc(C(=O)N(C)C)cc2)c1` (stereo not drawn) [Compound 2908], for which the IC50 amounted to 7 nM.

In the case of `O=[N+]([O-])c1ccc(COP(=O)(N2CC2)N2CC2)cc1Oc1ccc(C(F)(F)F)cc1` [Compound 3037], the IC50 amounted to 1 nM.

Turning to `O=[N+]([O-])c1ccc(Oc2cc(COP(=O)(N3CC3)N3CC3)ccc2[N+](=O)[O-])cc1` [Compound 2934], the IC50 was found to be 3 nM. The same measure for `CC(OP(=O)(N1CC1)N1CC1)c1ccc([N+](=O)[O-])c(Oc2nccs2)c1` (stereo not drawn) [Compound 2944]: > 5000 nM; for `Cc1ccccc1-c1ccc(Oc2cc(COP(=O)(N3CC3)N3CC3)ccc2[N+](=O)[O-])cc1` [Compound 3033]: 1 nM. The same measure for `CC(OP(=O)(N1CC1)N1CC1)c1ccc([N+](=O)[O-])c(Oc2nc3ccccc3s2)c1` (stereo not drawn) [Compound 2878]: 4400 nM; for `CN(C(=O)c1ccc(Oc2cc(COP(=O)(N3CC3)N3CC3)ccc2[N+](=O)[O-])cc1)c1ccccc1` [Compound 2974]: 1 nM; for `Cc1nc2ccc(Oc3cc(C(C)OP(=O)(N4CC4)N4CC4)ccc3[N+](=O)[O-])cc2s1` (stereo not drawn) [Compound 2930]: 2 nM. Then `CC(OP(=O)(N1CC1)N1CC1)c1ccc([N+](=O)[O-])c(Oc2ccccc2Cl)c1` (stereo not drawn) [Compound 2862], with 40 nM. Consider `CC(OP(=O)(N1CC1)N1CC1)c1ccc([N+](=O)[O-])c(Oc2ccc(-c3ccc(F)cc3)cc2)c1` (stereo not drawn) [Compound 3042], for which the IC50 was found to be 5 nM. Turning to `CC(OP(=O)(N1CC1)N1CC1)c1ccc([N+](=O)[O-])c(Oc2ccc3c(c2)ncn3C)c1` (stereo not drawn) [Compound 2920], the IC50 stood at 20 nM. The same measure for `CNC(=O)c1ccc(Oc2cc(COP(=O)(N3CC3)N3CC3)ccc2[N+](=O)[O-])cc1` [Compound 2940]: 5 nM.

For the compound `CC(OP(=O)(N1CC1)N1CC1)c1ccc([N+](=O)[O-])c(Oc2ccc(S(N)(=O)=O)cc2)c1` (stereo not drawn) [Compound 2880], the IC50 stood at 100 nM. For `CC(OP(=O)(N1CC1)N1CC1)c1ccc([N+](=O)[O-])c(Oc2cccc(C(=O)N3CCS(=O)(=O)CC3)c2)c1` (stereo not drawn) [Compound 2993], the IC50 was determined as 20 nM. The same measure for `CC(OP(=O)(N1CC1)N1CC1)c1ccc([N+](=O)[O-])c(Oc2ccc(-c3ccc(Cl)cc3)cc2)c1` (stereo not drawn) [Compound 3041]: 50 nM. The same measure for `CN(C)C(=O)c1ccc(Oc2cc(COP(=O)(N3CC3)N3CC3)ccc2[N+](=O)[O-])cc1` [Compound 2941]: 4 nM. The same measure for `CS(=O)(=O)c1cccc(Oc2cc(COP(=O)(N3CC3)N3CC3)ccc2[N+](=O)[O-])c1` [Compound 2951]: 20 nM. For the compound `CN(C)C(=O)c1ccccc1Oc1cc(COP(=O)(N2CC2)N2CC2)ccc1[N+](=O)[O-]` [Compound 2938], the IC50 was found to be 2500 nM. Then `CC(OP(=O)(N1CC1)N1CC1)c1ccc([N+](=O)[O-])c(Oc2cccc(C(=O)N3CCCCC3)c2)c1` (stereo not drawn) [Compound 2982], with 4 nM. With `O=[N+]([O-])c1ccc(COP(=O)(N2CC2)N2CC2)cc1Oc1ccc2ccccc2c1` [Compound 2968], the IC50 came to 4 nM. For the compound `CC(OP(=O)(N1CC1)N1CC1)c1ccc([N+](=O)[O-])c(Oc2cccc(C(F)(F)F)c2)c1` (stereo not drawn) [Compound 2871], the IC50 turned out to be 30 nM. For `O=[N+]([O-])c1ccc(COP(=O)(N2CC2)N2CC2)cc1Oc1ccc2cccnc2c1` [Compound 2970], the IC50 was found to be 40 nM. The same measure for `CC(OP(=O)(N1CC1)N1CC1)c1ccc([N+](=O)[O-])c(Oc2cccc(C(=O)N(C)c3ccccc3)c2)c1` (stereo not drawn) [Compound 2992]: 4 nM.

Turning to `CC(OP(=O)(N1CC1)N1CC1)c1ccc([N+](=O)[O-])c(Oc2ccc(-c3nccs3)cc2)c1` (stereo not drawn) [Compound 2898], the IC50 came out at 10 nM. As for `CS(=O)(=O)Nc1ccc(Oc2cc(COP(=O)(N3CC3)N3CC3)ccc2[N+](=O)[O-])cc1` [Compound 2946], the IC50 is 30 nM. Then `CC(OP(=O)(N1CC1)N1CC1)c1ccc([N+](=O)[O-])c(Oc2cccc(S(C)(=O)=O)c2)c1` (stereo not drawn) [Compound 2950], with 40 nM; and `Cc1nc2cc(Oc3cc(COP(=O)(N4CC4)N4CC4)ccc3[N+](=O)[O-])ccc2s1` [Compound 2929], with 30 nM. The same measure for `COc1ccc(Oc2cc(COP(=O)(N3CC3)N3CC3)ccc2[N+](=O)[O-])cc1` [Compound 2895]: 4 nM; for `CC(OP(=O)(N1CC1)N1CC1)c1ccc([N+](=O)[O-])c(Oc2cnc3ccccc3c2)c1` (stereo not drawn) [Compound 2956]: 4 nM. Then `CC(OP(=O)(N1CC1)N1CC1)c1ccc([N+](=O)[O-])c(Oc2ccccc2C(=O)N(C)C)c1` (stereo not drawn) [Compound 2885], with 3700 nM.

Consider `Cc1ccc(Oc2cc(C(C)OP(=O)(N3CC3)N3CC3)ccc2[N+](=O)[O-])cn1` (stereo not drawn) [Compound 2891], for which the IC50 came to 30 nM. The same measure for `CC(OP(=O)(N1CC1)N1CC1)c1ccc([N+](=O)[O-])c(Oc2ccc3c(c2)OCO3)c1` (stereo not drawn) [Compound 2866]: 20 nM; for `C/C(=N\Oc1cc(COP(=O)(N2CC2)N2CC2)ccc1[N+](=O)[O-])c1ccccc1` [Compound 2949]: 400 nM. Then `CC(OP(=O)(N1CC1)N1CC1)c1ccc([N+](=O)[O-])c(Oc2ccc(-c3ncco3)cc2)c1` (stereo not drawn) [Compound 2904], with 10 nM; and `CC(OP(=O)(N1CC1)N1CC1)c1ccc([N+](=O)[O-])c(Oc2ccc3cnn(C)c3c2)c1` (stereo not drawn) [Compound 2917], with 20 nM; and `C/C(=N\Oc1cc(C(C)OP(=O)(N2CC2)N2CC2)ccc1[N+](=O)[O-])c1ccccc1` (stereo not drawn) [Compound 2961], with 2700 nM. With `CC(OP(=O)(N1CC1)N1CC1)c1ccc([N+](=O)[O-])c(Oc2cncnc2)c1` (stereo not drawn) [Compound 2925], the IC50 stood at 40 nM.

As for `Cn1cnc2cc(Oc3cc(COP(=O)(N4CC4)N4CC4)ccc3[N+](=O)[O-])ccc21` [Compound 2921], the IC50 was 7 nM. For `CC(OP(=O)(N1CC1)N1CC1)c1ccc([N+](=O)[O-])c(Oc2ccc(C(F)(F)F)cc2)c1` (stereo not drawn) [Compound 3036], the IC50 amounted to 4 nM. The same measure for `CC(OP(=O)(N1CC1)N1CC1)c1cc(Oc2ccccc2)c([N+](=O)[O-])cc1F` (stereo not drawn) [Compound 2846]: 60 nM; for `CC(OP(=O)(N1CC1)N1CC1)c1ccc([N+](=O)[O-])c(Oc2ccccc2-c2ccccc2)c1` (stereo not drawn) [Compound 3028]: 700 nM; for `O=C(c1cccc(Oc2cc(COP(=O)(N3CC3)N3CC3)ccc2[N+](=O)[O-])c1)N1CCCCC1` [Compound 2983]: 4 nM. Consider `Cc1ccccc1-c1ccc(Oc2cc(C(C)OP(=O)(N3CC3)N3CC3)ccc2[N+](=O)[O-])cc1` (stereo not drawn) [Compound 3032], for which the IC50 stood at 3 nM. Then `NS(=O)(=O)c1ccc(Oc2cc(COP(=O)(N3CC3)N3CC3)ccc2[N+](=O)[O-])cc1` [Compound 2887], with 200 nM; and `CC(OP(=O)(N1CC1)N1CC1)c1ccc([N+](=O)[O-])c(Oc2ccc(F)cc2)c1` (stereo not drawn) [Compound 2861], with 20 nM; and `CC(OP(=O)(N1CC1)N1CC1)c1ccc([N+](=O)[O-])c(Oc2cccc(C(=O)N3CCOCC3)c2)c1` (stereo not drawn) [Compound 2972], with 10 nM. The same measure for `CC(OP(=O)(N1CC1)N1CC1)c1ccc([N+](=O)[O-])c(Oc2cccc3ccccc23)c1` (stereo not drawn) [Compound 2954]: 100 nM; for `Cc1ccc(Oc2cc(COP(=O)(N3CC3)N3CC3)ccc2[N+](=O)[O-])cc1` [Compound 3031]: 10 nM. Then `CC(C)(C)c1ccc(Oc2cc(COP(=O)(N3CC3)N3CC3)ccc2[N+](=O)[O-])cc1` [Compound 3035], with 1 nM; and `CC(OP(=O)(N1CC1)N1CC1)c1ccc([N+](=O)[O-])c(Oc2cccc(C(N)=O)c2)c1` (stereo not drawn) [Compound 2924], with 100 nM. Regarding `CC(OP(=O)(N1CC1)N1CC1)c1ccc([N+](=O)[O-])c(Oc2ccccc2S(C)(=O)=O)c1` (stereo not drawn) [Compound 2980], the IC50 was 3000 nM.

As for `N#Cc1ccc(Oc2cc(COP(=O)(N3CC3)N3CC3)ccc2[N+](=O)[O-])cc1` [Compound 2927], the IC50 was determined as 3 nM.

On to `CC(OP(=O)(N1CC1)N1CC1)c1ccc([N+](=O)[O-])c(Oc2ccc(F)cc2F)c1` (stereo not drawn) [Compound 2863], for which the IC50 stood at 20 nM.

On to `CC(OP(=O)(N1CC1)N1CC1)c1ccc([N+](=O)[O-])c(Oc2cnc3cccnc3c2)c1` (stereo not drawn) [Compound 2933], for which the IC50 turned out to be 100 nM. Then `CC(OP(=O)(N1CC1)N1CC1)c1ccc([N+](=O)[O-])c(Oc2cccc3cnccc23)c1` (stereo not drawn) [Compound 2945], with 50 nM; and `CC(OP(=O)(N1CC1)N1CC1)c1ccc([N+](=O)[O-])c(Oc2ccc3ncsc3c2)c1` (stereo not drawn) [Compound 2900], with 40 nM; and `O=C(c1cccc(Oc2cc(COP(=O)(N3CC3)N3CC3)ccc2[N+](=O)[O-])c1)N1CCOCC1` [Compound 2973], with 20 nM. Turning to `CCOC(=O)c1ccc(Oc2cc(C(C)OP(=O)(N3CC3)N3CC3)ccc2[N+](=O)[O-])cc1` (stereo not drawn) [Compound 2853], the IC50 was < 5 nM.

Consider `CNC(=O)c1ccccc1Oc1cc(COP(=O)(N2CC2)N2CC2)ccc1[N+](=O)[O-]` [Compound 2939], for which the IC50 was 2700 nM. Then `CC(OP(=O)(N1CC1)N1CC1)c1ccc([N+](=O)[O-])c(Oc2ccc(NS(=O)(=O)C(F)(F)F)cc2)c1` (stereo not drawn) [Compound 2913], with 70 nM.
